The text below walks through data of ChEMBL document CHEMBL3507680, “University of Dundee, Gates Library screen for HepG2 cell viability”.

The structures appear in SMILES notation.

A short description of this series: Human HepG2 cell viability assay in 384 well format. Type of series: toxicity, cell-based. The settings on record: HepG2 cells, read-out: Inhibition. Set-up: dose 125 nL, time 70.5 hour; concentration not given beside the values.

Take `Cc1nnc2n1CCN(CC(=O)NC(C)c1cccc3ccccc13)C2` (stereo not drawn): the cytotoxicity at 70.5 h turned out to be 2.87%.
As to `Cn1c(=O)[nH]c2cc(C(=O)OCC(F)F)ccc21`, the cytotoxicity at 70.5 h was 19.9%.
Next, `CNC(=O)NC(=O)CN1CCN(CC2CC2)c2ccccc21`: 1.66%; `O=C(NC1CCS(=O)(=O)c2ccccc21)c1sccc1C1CC1` (stereo not drawn): -7.25%; `O=C(NCc1nncn1C1CC1)C1(c2ccc(F)cc2)CCOCC1`: 16.9%.
Next, `CCCc1nc(CN(C)CCOc2ccccc2)cs1`: -8.59%; `Cc1cc(CNCC2CCCN(C(=O)OC(C)(C)C)C2)no1` (stereo not drawn): -6.15%; `O[C@H]1Cc2ccccc2[C@H]1Nc1ncccc1C(F)(F)F`: -4.3%.
On to `Cc1cc(C(=O)NCC2CCCC2)c(C)n1-c1cccnc1`, for which the cytotoxicity at 70.5 h is -6.04%.
As for `CC(c1ncc(C(C)(C)C)o1)N1CCN(Cc2ccc(Cl)s2)CC1` (stereo not drawn), the figure is 16.2%; as for `CCOc1ccnc(N2CCCN(c3nc(C4CC4)ns3)CC2)n1`, 4.37%.
Next, `Cc1nn(C)c(C)c1C1CCCN1CCCC#N` (stereo not drawn): -4.71%; `Cc1nn(C)c(C)c1C1CCCN1CCOc1cccc(C#N)c1` (stereo not drawn): -3.95%.
Next, `CCOCCN1CCN(CCC(=O)N2CCCCC2)CC1C` (stereo not drawn): -0.119%; `COC(=O)C(C)(C)NC(=O)c1cc2sc(N(C)C)nc2s1`: -13.9%; `Cc1csc(CNC(=O)NC2CCCN(S(C)(=O)=O)C2)n1` (stereo not drawn): -12.3%.
On to `c1csc(-c2cc(CN3CCN(c4cnccn4)CC3)no2)c1`, for which the cytotoxicity at 70.5 h is -14.8%.
As for `CCc1noc(C(C)N2CCN(c3ncnc4sccc34)CC2)n1` (stereo not drawn), the figure is 1.35%; as for `CC(NCc1ccc(OCC(N)=O)cc1)c1ccc2c(c1)CCCC2` (stereo not drawn), -4.04%.
Take `CN(C)c1cc2c(nn1)CCN(C(=O)c1cc3c(s1)CCC3)C2`: the cytotoxicity at 70.5 h is 8.88%.
Regarding `Cn1cc(C(=O)N2CCCN(c3cccnn3)CC2)c2ccccc21`, the cytotoxicity at 70.5 h was -0.532%.
On to `CCNc1cc2c(nn1)CCN(C(=O)C1Cc3ccccc3S1)C2` (stereo not drawn), for which the cytotoxicity at 70.5 h is -6.84%.
Regarding `CCNc1cc2c(nn1)CCN(C(=O)c1cc3c(s1)CCOC3)C2`, the cytotoxicity at 70.5 h is -9.07%.
As for `COc1cc(OC)cc(N2CCC(NC(=O)c3cccn3C)CC2)c1`, the cytotoxicity at 70.5 h is -13.4%.
Turning to `COCCN1CCC(CNC(=O)Nc2ccc(-c3ccccc3)cc2)C1` (stereo not drawn), the cytotoxicity at 70.5 h is 1.85%.
As for `CCOCCN1CCN(CC(=O)N2CCCC2)CC1C` (stereo not drawn), the cytotoxicity at 70.5 h was -7.94%.
On to `CC(CNC(=O)c1ccc(C#N)cc1)N1CCc2ccccc21` (stereo not drawn), for which the cytotoxicity at 70.5 h amounted to 0.334%.
As for `Cc1ccc(N2CCCN(C(=O)c3cn(C)c4ccccc34)CC2)nn1`, the figure is -7.87%; as for `COCCNC1(c2ccc(Cl)cc2)CCOCC1`, 11%.
`CCN(CC1CCOC1)C(=O)NCc1ccc(-n2cncn2)nc1` (stereo not drawn): the cytotoxicity at 70.5 h was -1.6%.
As for `Cc1ccc(C(=O)N(Cc2cccc(F)c2)C2CC2)c(=O)[nH]1`, the cytotoxicity at 70.5 h was -2.11%.
Next, `Cc1ccc(C(=O)N(Cc2ccc(F)cc2F)C2CC2)c(=O)[nH]1`: -2.76%; `CN(CCCNC(=O)c1cccc(OCC(N)=O)c1)CC(F)(F)F`: 0.403%.
As for `CN1N=C(C(=O)N2CCCN(c3ncccc3C#N)CC2)CCC1=O`, the figure is 3.72%; as for `CCn1ccnc1CN1CCN(c2ncnc3ccsc23)CC1`, -3.44%.
As for `CCn1ccnc1CN1CCN(c2ncnc3ccccc23)CC1`, the figure is -2.5%; as for `Cn1ccnc1CN1CCN(c2ncnc3ccsc23)CC1`, -0.211%.
In the case of `Cc1cc(CNC(=O)N2CCc3ccccc32)on1`, the cytotoxicity at 70.5 h is -1.25%.
Next, `CN1N=C(C(=O)N2CCN(c3ncccc3Cl)CC2)CCC1=O`: 12%.
Turning to `Cn1cc(N2CCCC(Nc3ccc4c(c3)NC(=O)CC4)C2=O)cn1` (stereo not drawn), the cytotoxicity at 70.5 h is -1.14%.
Take `O=C(c1ccc(NCc2ccco2)nc1)N1CCc2ccccc21`: the cytotoxicity at 70.5 h is -3.94%.
Turning to `Cn1cc(N2CCCC(Nc3ccc4c(c3)CCC(=O)N4)C2=O)cn1` (stereo not drawn), the cytotoxicity at 70.5 h turned out to be 0.589%.
Consider `Cc1noc(C)c1CCCNC(=O)C1CCCN(C(=O)C2CC2)C1` (stereo not drawn), for which the cytotoxicity at 70.5 h was -0.841%.
For `COCCC(=O)N1CCC(Nc2ncc(Br)cn2)CC1`, the cytotoxicity at 70.5 h was -0.761%.
As for `CC(C)OCCNC1(c2ccc(Cl)cc2)CCOCC1`, the cytotoxicity at 70.5 h is -0.58%.
As for `CC(c1cccnc1)N1CCN(C(=O)NCc2cnn(C)c2)CC1` (stereo not drawn), the figure is -1.81%; as for `CC(C)CNC(=O)COc1cccc[n+]1[O-]`, 0.267%; as for `COCc1ccccc1C(=O)NCC(c1c(F)cccc1F)N(C)C` (stereo not drawn), 0.326%.
Consider `COC1CCN(CCNC(=O)NCC(C)c2cccc(C)c2)CC1` (stereo not drawn), for which the cytotoxicity at 70.5 h was 9.93%.
Next, `COc1ccc2c(c1)CCCN2C(=O)CN1CCOC(C)C1` (stereo not drawn): 0.691%.
Next, `CN(CCCNC(=O)c1ccccc1F)CC(F)(F)F`: -2.12%.
Consider `COCC(=O)N1CCN(C(=O)C2(c3ccc(C)c(OC)c3)CC2)CC1`, for which the cytotoxicity at 70.5 h was -2.36%.
For the molecule `O=C(Cc1csc(Cc2ccccn2)n1)NCCCN1CCCC1=O`, the cytotoxicity at 70.5 h came to 32.1%.
As for `N#Cc1c(F)cccc1Nc1cnn(CC(=O)N2CCOCC2)c1`, the figure is 39.8%; as for `Cc1ccccc1CN(C)C(C(N)=O)c1ccccc1` (stereo not drawn), -16.6%.
Consider `CN(C)c1ncccc1CNc1snc(Cl)c1C#N`, for which the cytotoxicity at 70.5 h was -77.9%.
With `CN(Cc1cnn(C)c1)C(=O)Cc1ccc2c(c1)OCCO2`, the cytotoxicity at 70.5 h is -62.7%.
`N#Cc1c(Cl)nsc1NCc1cccnc1OCC(F)(F)F`: the cytotoxicity at 70.5 h is -105%.
As for `CC(C(N)=O)N(C)Cc1ccccc1C(F)(F)F` (stereo not drawn), the figure is -87.9%.
Next, `COCC(=O)N1CCN(Cc2csc(-c3ncccn3)n2)CC1`: -2.92%; `Cc1c(C(=O)NCCC(C)C)nnn1-c1cccc2c1CCN(C)C2`: -5.25%.
For the molecule `CCC(C)(C)NC(=O)c1nnn(-c2cccc3c2CCN(C)C3)c1C`, the cytotoxicity at 70.5 h amounted to 9.39%.
As for `COCCNC(=O)Nc1cccc2c1CCN(S(C)(=O)=O)C2`, the figure is -0.282%.
Consider `Cc1cc(C)n(C2CN(CC(=O)N(C)Cc3ccsc3)C2)n1`, for which the cytotoxicity at 70.5 h is -1.75%.
With `CSCC(=O)Nc1cccc(Oc2ccccn2)c1`, the cytotoxicity at 70.5 h is 9.83%.
As for `CCN(CC)C(=O)Nc1cccc(Oc2ccccn2)c1`, the cytotoxicity at 70.5 h was determined as 20.3%.
Next, `CCNC(=O)N(CCCO)C1CCCc2ccccc21` (stereo not drawn): -3.93%.
As to `N#Cc1cccc(S(=O)(=O)N2CCCCC2C(N)=O)c1` (stereo not drawn), the cytotoxicity at 70.5 h is -3.12%.
Next, `CCOCCOC(C)C(=O)NCc1cn2cc(Cl)ccc2n1` (stereo not drawn): 15.2%; `CC(=O)Nc1cccc(OCCNC(=O)N(C)Cc2ccccc2)c1`: 3.43%; `CCCC(C(=O)NCCc1nc(C)cs1)N(C)C` (stereo not drawn): 2.88%.
For `Cc1nc(C)n(CC2CCCN(Cc3nc(-c4ccco4)no3)C2)n1` (stereo not drawn), the cytotoxicity at 70.5 h was -3.87%.
As for `CC(O)CN1CCN(C(=O)c2cnc(OC(C)C)c(Cl)c2)CC1` (stereo not drawn), the figure is 5%; as for `Cc1ccccc1CN(C)C(=O)Cn1nc(-c2ccc(F)cc2)oc1=O`, 29.6%; as for `Cc1cc(NCc2ccccc2CN2CCCCC2)n2ncnc2n1`, -10.1%.
Turning to `Cc1cc(=O)n2ncnc2n1CC(O)c1ccc(F)cc1F` (stereo not drawn), the cytotoxicity at 70.5 h was -16.6%.
`NC(=O)NC(=O)CCN1CCC(C(=O)c2cc(F)ccc2F)CC1`: the cytotoxicity at 70.5 h was -12.1%.
As for `O=C(CCN1CCC(C(=O)c2cc(F)ccc2F)CC1)NC1CCCC1`, the figure is -17.8%; as for `O=C(c1cccnc1)N1CCCC1C1CCN(Cc2ccccc2)CC1` (stereo not drawn), -13.7%; as for `COCC(C)NC(=O)Nc1cc(-c2ccccc2C)nn1CCO` (stereo not drawn), -4.5%.
With `CC(C)S(=O)(=O)NC(=O)c1cc(-c2cccc(Cl)c2)no1`, the cytotoxicity at 70.5 h was -11.8%.
With `Cc1n[nH]c(C2CN(C(=O)c3ccoc3C)CCO2)n1` (stereo not drawn), the cytotoxicity at 70.5 h turned out to be 1.53%.
Next, `CN(C)S(=O)(=O)c1cccc(CNc2cc(CO)ccc2Cl)c1`: -13.5%; `Cc1ccc(C(=O)N2CCSCC2)cc1NC(C)C`: -3.36%; `CC(C)Oc1ncc(C(=O)N2CCC(N(C)C)CC2)cc1Cl`: -9.31%.
As for `CCCc1nc(CN2CCCC2Cn2cccn2)cs1` (stereo not drawn), the cytotoxicity at 70.5 h is -11.6%.
On to `CC(C)(C)c1noc(CN2CCN(C(=O)c3ccco3)CC2)n1`, for which the cytotoxicity at 70.5 h is 14.9%.
Consider `CC(C)C(=O)NC1CCN(CCO)CC1`, for which the cytotoxicity at 70.5 h worked out at 4.41%.
Next, `c1ccc(-c2nnc(CNCC3CCCN3c3cccnn3)o2)cc1` (stereo not drawn): 7.04%; `CN(Cc1nnc(C2CC2)o1)C1CCN(CCc2cccs2)C1` (stereo not drawn): 30.4%; `CC1CCCCN1CCNC(=O)c1ccccc1N1CCOCC1` (stereo not drawn): 19%.
As for `CC1Cc2ccccc2N1Cc1occc1C(=O)O` (stereo not drawn), the figure is -5.89%; as for `O=C(Nc1nnc(C2CC2)s1)NC1CCOc2ccccc21` (stereo not drawn), 22.9%; as for `CC(C)c1nnc(NC(=O)NC2CCOc3ccccc32)s1` (stereo not drawn), -2.44%.
Take `CN(CC(N)=O)S(=O)(=O)c1ccc(F)cc1F`: the cytotoxicity at 70.5 h is -7.55%.
Next, `CNC(=O)CCNC(=O)c1ccccc1N1CCOCC1`: -4.86%; `COCCN1CCC(NC(=O)C(C)C)CC1`: -1.39%.
Next, `CC(=O)N1CCN(CC(=O)N2CCN(c3cccc(C)c3)CC2)CC1`: 24.4%.
For `CS(=O)(=O)c1ccc(OCCNCc2cccc(Cl)c2)cc1`, the cytotoxicity at 70.5 h worked out at 23.8%.
Next, `CNS(=O)(=O)CCCn1nnc(-c2ccc(F)c(C)c2)n1`: -3.63%; `Cc1ccc(OCC(=O)NC2CC2)nc1`: -2.52%.
As for `CS(=O)(=O)c1ccc(OCCNCc2ccc(F)cc2)cc1`, the figure is -1.74%.
As for `CC(NCc1ccc(OCC(N)=O)cc1)c1ccc(Cl)cc1Cl` (stereo not drawn), the figure is -5.48%.
